# Measured values: patent publication US8354402B2, “Polyarylcarboxamides useful as lipid lowering agents” (Janssen Pharmaceutica N.V., priority 2000, dated 2013)
# Tested on: ApoB secretion, HepG2 cells
# Assay: Quantification of the secretion of ApoB (HepG2 cells, immunoprecipitation, scintillation counting)
# Assay type: cell-based
# Details: Homo sapiens, HepG2, 24 h, 24 hours of incubation
# How it was run: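 HepG2 cells in MEM Rega 3 with 10% FCS were treated at 70% confluency with compound (DMSO 0.4% final) for 24 h. Medium ApoB was immunoprecipitated with sheep anti-apoB then rabbit anti-sheep antibody (24 h each, 8° C), and pellet radioactivity was counted by liquid scintillation to give IC50.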
row,SMILES,IC50 [µM]
1,C=CCOC(=O)C(c1ccccc1)N1CCC(c2ccc(NC(=O)c3ccccc3-c3ccc(C(F)(F)F)cc3)cc2)CC1 (stereo not shown) [Co. No. 152],0.0944
2,O=C(Nc1ccc(C2CCN(C(C(=O)OCc3ccccc3)c3ccccc3)CC2)cc1)c1ccccc1-c1ccccc1 (stereo not shown) [Co. No. 153],1.55
3,C=CCOC(=O)C(c1ccccc1)N1CCC(c2ccc(NC(=O)c3ccccc3-c3ccccc3)cc2)CC1 (stereo not shown) [Co. No. 154],2.32
4,COC(=O)C(c1ccccc1)N1CC=C(c2ccc(NC(=O)c3ccccc3-c3ccccc3)cc2)CC1 (stereo not shown) [Co. No. 156],0.122
5,COC(=O)C(c1ccccc1)C1CCN(c2ccc(NC(=O)c3ccccc3-c3ccccc3)cc2)CC1 (stereo not shown) [Co. No. 157],0.107
6,O=C(Nc1ccc(N2CCN(C(C(=O)Oc3ccccc3)c3ccccc3)CC2)cc1)c1ccccc1-c1ccc(C(F)(F)F)cc1 (stereo not shown) [Co. No. 158],0.0213
7,COC(=O)C(c1ccccc1)N1CCN(c2ccc(NC(=O)c3ccccc3-c3ccc(Cl)cc3)cc2)CC1 (stereo not shown) [Co. No. 159],0.106
8,CCNC(=O)C(c1ccccc1)N1CCN(c2ccc(NC(=O)c3ccccc3-c3ccc(Cl)cc3)cc2)CC1 (stereo not shown) [Co. No. 160],0.0324
9,O=C(Nc1ccc(C2CCN(C(C(=O)NCc3ccccc3)c3ccccc3)CC2)cc1)c1ccccc1-c1ccccc1 (stereo not shown) [Co. No. 161],0.0689
10,O=C(Nc1ccc(C2CCN(C(C(=O)Nc3ccccc3)c3ccccc3)CC2)cc1)c1ccccc1-c1ccccc1 (stereo not shown) [Co. No. 162],0.0966
11,C=CCNC(=O)C(c1ccccc1)N1CCC(c2ccc(NC(=O)c3ccccc3-c3ccccc3)cc2)CC1 (stereo not shown) [Co. No. 163],0.25
12,O=C(Nc1ccc(C2=CCN(C(C(=O)Nc3ccccc3)c3ccccc3)CC2)cc1)c1ccccc1-c1ccc(C(F)(F)F)cc1 (stereo not shown) [Co. No. 164],0.1
13,C=CCNC(=O)C(c1ccccc1)N1CC=C(c2ccc(NC(=O)c3ccccc3-c3ccc(C(F)(F)F)cc3)cc2)CC1 (stereo not shown) [Co. No. 165],0.033
14,O=C(Nc1ccc(C2=CCN(C(C(=O)NCc3ccccc3)c3ccccc3)CC2)cc1)c1ccccc1-c1ccccc1 (stereo not shown) [Co. No. 166],0.036
15,C=CCNC(=O)C(c1ccccc1)N1CC=C(c2ccc(NC(=O)c3ccccc3-c3ccccc3)cc2)CC1 (stereo not shown) [Co. No. 167],< 0.03
16,O=C(Nc1ccc(C2=CCN(C(C(=O)OCc3ccccc3)c3ccccc3)CC2)cc1)c1ccccc1-c1ccc(C(F)(F)F)cc1 (stereo not shown) [Co. No. 168],0.132
17,O=C(Nc1ccc(N2CCC(C(C(=O)OCc3ccccc3)c3ccccc3)CC2)cc1)c1ccccc1-c1ccc(C(F)(F)F)cc1 (stereo not shown) [Co. No. 174],0.0923
18,O=C(Nc1ccc(N2CCC(C(C(=O)Oc3ccccc3)c3ccccc3)CC2)cc1)c1ccccc1-c1ccc(C(F)(F)F)cc1 (stereo not shown) [Co. No. 175],< 0.03
19,C=CCOC(=O)C(c1ccccc1)C1CCN(c2ccc(NC(=O)c3ccccc3-c3ccc(C(F)(F)F)cc3)cc2)CC1 (stereo not shown) [Co. No. 176],0.134

row,SMILES,IC50 [µM]
1,O=C(Nc1ccc(N2CCC(C(C(=O)OCc3ccccc3)c3ccccc3)CC2)cc1)c1ccccc1-c1ccccc1 (stereo not shown) [Co. No. 177],0.261
2,O=C(Nc1ccc(N2CCC(C(C(=O)Oc3ccccc3)c3ccccc3)CC2)cc1)c1ccccc1-c1ccccc1 (stereo not shown) [Co. No. 178],0.0343
3,C=CCOC(=O)C(c1ccccc1)C1CCN(c2ccc(NC(=O)c3ccccc3-c3ccccc3)cc2)CC1 (stereo not shown) [Co. No. 179],0.403
4,CCNC(=O)C(c1ccccc1)C1CCN(c2ccc(NC(=O)c3ccccc3-c3ccccc3)cc2)CC1 (stereo not shown) [Co. No. 180],0.114
5,CCNC(=O)C(c1ccccc1)C1CCN(c2ccc(NC(=O)c3ccccc3-c3ccc(C(F)(F)F)cc3)cc2)CC1 (stereo not shown) [Co. No. 181],0.00331
6,CCNC(=O)C(c1ccccc1)N1CCN(c2ccc(N(C)C(=O)c3ccccc3-c3ccc(C(F)(F)F)cc3)cc2)CC1 (stereo not shown) [Co. No. 182],0.00762
7,COC(=O)C(c1ccccc1)N1CCN(c2ccc(N(C)C(=O)c3ccccc3-c3ccc(C(F)(F)F)cc3)cc2)CC1 (stereo not shown) [Co. No. 183],0.0216
8,COC(=O)C(c1ccccc1)N1CCN(c2ccc(NC(=O)c3ccc(C)cc3-c3ccc(C(F)(F)F)cc3)cc2)CC1 (stereo not shown) [Co. No. 184],0.00313
9,COC(=O)C(c1ccccc1)N1CCN(c2ccc(NC(=O)c3ccc(F)cc3-c3ccc(C(F)(F)F)cc3)cc2)CC1 (stereo not shown) [Co. No. 185],0.0488
10,COC(=O)C(c1ccccc1)N1CCN(c2ccc(NC(=O)c3cc(OC)ccc3-c3ccc(C(F)(F)F)cc3)cc2)CC1 (stereo not shown) [Co. No. 186],0.2
11,COC(=O)C(c1ccccc1)N1CCN(c2ccc(NC(=O)c3c(F)cccc3-c3ccc(C(F)(F)F)cc3)cc2)CC1 (stereo not shown) [Co. No. 187],0.0411
12,COC(=O)C(c1ccccc1)N1CCN(c2ccc(NC(=O)c3c(C)cccc3-c3ccc(C(F)(F)F)cc3)cc2)CC1 (stereo not shown) [Co. No. 188],0.01
13,COC(=O)C(c1ccccc1)N1CCN(c2ccc(NC(=O)c3cc(C)ccc3-c3ccc(C(F)(F)F)cc3)cc2)CC1 (stereo not shown) [Co. No. 189],0.105
14,COC(=O)C(c1ccccc1)N1CCN(c2ccc(NC(=O)c3cccc(C)c3-c3ccc(C(F)(F)F)cc3)cc2)CC1 (stereo not shown) [Co. No. 190],0.00641
15,COC(=O)C(c1ccccc1)N1CCN(c2ccc(NC(=O)c3cc(Cl)ccc3-c3ccc(C(F)(F)F)cc3)cc2)CC1 (stereo not shown) [Co. No. 191],0.00719
16,COC(=O)C(c1ccccc1)N1CCN(c2ccc(NC(=O)c3ccc(Cl)cc3-c3ccc(C(F)(F)F)cc3)cc2)CC1 (stereo not shown) [Co. No. 192],0.158
17,COC(=O)C(c1ccccc1)N1CCN(c2ccc(NC(=O)c3cc(OC)c(OC)cc3-c3ccc(C(F)(F)F)cc3)cc2)CC1 (stereo not shown) [Co. No. 193],0.235
18,CCNC(=O)C(c1ccccc1)N1CCN(c2ccc(NC(=O)c3ccc(C)cc3-c3ccc(C(F)(F)F)cc3)cc2)CC1 (stereo not shown) [Co. No. 194],0.043
19,CCNC(=O)C(c1ccccc1)N1CCN(c2ccc(NC(=O)c3cc(OC)ccc3-c3ccc(C(F)(F)F)cc3)cc2)CC1 (stereo not shown) [Co. No. 195],0.0897

# Continued, values first:
row,IC50 [µM],SMILES
1,0.1,CCNC(=O)C(c1ccccc1)N1CCN(c2ccc(NC(=O)c3c(F)cccc3-c3ccc(C(F)(F)F)cc3)cc2)CC1 (stereo not shown) [Co. No. 196]
2,0.0165,CCNC(=O)C(c1ccccc1)N1CCN(c2ccc(NC(=O)c3c(C)cccc3-c3ccc(C(F)(F)F)cc3)cc2)CC1 (stereo not shown) [Co. No. 197]
3,0.0731,CCNC(=O)C(c1ccccc1)N1CCN(c2ccc(NC(=O)c3cc(C)ccc3-c3ccc(C(F)(F)F)cc3)cc2)CC1 (stereo not shown) [Co. No. 198]
4,0.0802,CCNC(=O)C(c1ccccc1)N1CCN(c2ccc(NC(=O)c3cc(Cl)ccc3-c3ccc(C(F)(F)F)cc3)cc2)CC1 (stereo not shown) [Co. No. 200]
5,< 0.03,CCNC(=O)C(c1ccccc1)N1CCN(c2ccc(NC(=O)c3ccc(Cl)cc3-c3ccc(C(F)(F)F)cc3)cc2)CC1 (stereo not shown) [Co. No. 201]
6,0.184,CCNC(=O)C(c1ccccc1)N1CCN(c2ccc(NC(=O)c3cc(OC)c(OC)cc3-c3ccc(C(F)(F)F)cc3)cc2)CC1 (stereo not shown) [Co. No. 202]
7,0.428,COC(=O)C(c1ccccc1)N1CCN(c2cc(F)c(NC(=O)c3ccccc3-c3ccc(C(F)(F)F)cc3)c(F)c2)CC1 (stereo not shown) [Co. No. 204]
8,0.0475,COC(=O)C(c1ccccc1)N1CCN(c2ccc(NC(=O)c3ccccc3-c3ccc(C(F)(F)F)cc3)cc2Cl)CC1 (stereo not shown) [Co. No. 205]
9,0.783,COC(=O)C(c1ccccc1)N1CCN(c2ccc(NC(=O)c3ccccc3-c3ccc(C(F)(F)F)cc3)c(C(F)(F)F)c2)CC1 (stereo not shown) [Co. No. 206]
10,< 0.03,COC(=O)C(c1ccccc1)N1CCN(c2ccc(NC(=O)c3ccccc3-c3ccc(C(F)(F)F)cc3)c(Cl)c2)CC1 (stereo not shown) [Co. No. 207]
11,0.00748,COC(=O)C(c1ccccc1)N1CCN(c2ccc(NC(=O)c3ccccc3-c3ccc(C(F)(F)F)cc3)c(C)c2)CC1 (stereo not shown) [Co. No. 208]
12,0.00796,COC(=O)C(c1ccccc1)N1CCN(c2cc(C)c(NC(=O)c3ccccc3-c3ccc(C(F)(F)F)cc3)c(C)c2)CC1 (stereo not shown) [Co. No. 209]
13,0.483,COC(=O)C(c1ccccc1)N1CCN(c2ccc(NC(=O)c3ccccc3-c3ccc(C(F)(F)F)cc3)cc2C(F)(F)F)CC1 (stereo not shown) [Co. No. 210]
14,0.0199,COC(=O)C(c1ccccc1)N1CCN(c2ccc(NC(=O)c3ccccc3-c3ccc(C(F)(F)F)cc3)cc2C)CC1 (stereo not shown) [Co. No. 211]
15,< 0.03,COC(=O)C(c1ccccc1)N1CCN(c2ccc(NC(=O)c3ccccc3-c3ccc(C(F)(F)F)cc3)c(F)c2)CC1 (stereo not shown) [Co. No. 212]
16,< 0.03,CCNC(=O)C(c1ccccc1)N1CCN(c2ccc(NC(=O)c3ccccc3-c3ccc(C(F)(F)F)cc3)cc2Cl)CC1 (stereo not shown) [Co. No. 213]
17,< 0.03,CCNC(=O)C(c1ccccc1)N1CCN(c2ccc(NC(=O)c3ccccc3-c3ccc(C(F)(F)F)cc3)c(Cl)c2)CC1 (stereo not shown) [Co. No. 214]
18,< 0.03,CCNC(=O)C(c1ccccc1)N1CCN(c2ccc(NC(=O)c3ccccc3-c3ccc(C(F)(F)F)cc3)c(C)c2)CC1 (stereo not shown) [Co. No. 215]
19,0.0471,CCNC(=O)C(c1ccccc1)N1CCN(c2cc(C)c(NC(=O)c3ccccc3-c3ccc(C(F)(F)F)cc3)c(C)c2)CC1 (stereo not shown) [Co. No. 216]
20,2.69,CCNC(=O)C(c1ccccc1)N1CCN(c2ccc(NC(=O)c3ccccc3-c3ccc(C(F)(F)F)cc3)cc2C(F)(F)F)CC1 (stereo not shown) [Co. No. 217]
21,< 0.03,CCNC(=O)C(c1ccccc1)N1CCN(c2ccc(NC(=O)c3ccccc3-c3ccc(C(F)(F)F)cc3)cc2C)CC1 (stereo not shown) [Co. No. 218]
22,0.0785,CCNC(=O)C(c1ccccc1)N1CCN(c2ccc(NC(=O)c3ccccc3-c3ccc(C(F)(F)F)cc3)c(F)c2)CC1 (stereo not shown) [Co. No. 219]
23,< 0.03,CC(C)=CCOC(=O)C(c1ccccc1)N1CCC(c2ccc(NC(=O)c3ccccc3-c3ccc(C(F)(F)F)cc3)cc2)CC1 (stereo not shown) [Co. No. 220]
24,< 0.03,O=C(Nc1ccc(C2CCN(C(C(=O)OCCCc3ccccc3)c3ccccc3)CC2)cc1)c1ccccc1-c1ccc(C(F)(F)F)cc1 (stereo not shown) [Co. No. 221]
25,0.37,CC(C)OC(=O)C(c1ccccc1)N1CCC(c2ccc(NC(=O)c3ccccc3-c3ccc(C(F)(F)F)cc3)cc2)CC1 (stereo not shown) [Co. No. 223]
26,0.557,CCC(CC)OC(=O)C(c1ccccc1)N1CCC(c2ccc(NC(=O)c3ccccc3-c3ccc(C(F)(F)F)cc3)cc2)CC1 (stereo not shown) [Co. No. 224]
